13 molecules from patent US10526336B2, “Fused heteroaryl derivatives as orexin receptor antagonists” (Merck Sharp & Dohme Corp., priority 2014, dated 2020) can be followed below.

What is called IC50 is the midpoint of a concentration-inhibition curve.

Chain of human orexin-2 receptor (O43614 whole entry): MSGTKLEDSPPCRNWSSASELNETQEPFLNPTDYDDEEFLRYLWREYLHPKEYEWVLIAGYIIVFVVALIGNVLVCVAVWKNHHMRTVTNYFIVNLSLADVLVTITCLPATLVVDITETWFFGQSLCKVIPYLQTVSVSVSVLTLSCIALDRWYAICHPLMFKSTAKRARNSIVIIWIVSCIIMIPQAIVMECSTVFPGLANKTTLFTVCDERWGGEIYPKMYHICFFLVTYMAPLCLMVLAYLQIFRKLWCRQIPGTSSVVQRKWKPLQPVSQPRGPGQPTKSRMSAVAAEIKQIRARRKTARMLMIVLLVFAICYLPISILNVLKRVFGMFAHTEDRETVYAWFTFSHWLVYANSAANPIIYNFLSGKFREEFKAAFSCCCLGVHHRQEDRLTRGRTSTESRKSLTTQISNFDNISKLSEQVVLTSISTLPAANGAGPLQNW

The target of the assay is human orexin-2 receptor (Homo sapiens (Human), UniProt O43614). Briefly: FLIPR Ca2+ Flux Assay, orexin-2 receptor antagonism in CHO cells. In kind it is cell-based. The following applies: CHO cells expressing the human orexin-2 receptor; agonist 70 pM Ala-6,12 orexin-A; read-out: hOX2 FLIPR IC50. An outline of the steps:
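CHO cells expressing rat OX1R or human OX2R, Fluo-4AM loaded, given compounds for 5 min, then challenged with 70 pM Ala-6,12 human orexin-A in HBSS/HEPES/BSA/probenecid, pH 7.4. FLIPR calcium fluorescence recorded 5 min; peak height versus agonist-alone gives IC50.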
(Calcium flux is commonly read through the fluorescence of an indicator in the cells.)
As to `C[C@@H]1CC[C@@H](Oc2nccn3nccc23)CN1C(=O)c1cscc1-c1ncccn1` [Example 74, ((2R,5R)-2-methyl-5-(pyrazolo[1,5-α]pyrazin-4-yloxy)piperidin-1-yl)(4-(pyrimidin-2-yl)thiophen-3-yl) methanone], the half-maximal inhibitory concentration (IC50) worked out at 34.4 nM.

Take `C[C@@H]1CC[C@@H](Oc2nccn3nccc23)CN1C(=O)c1ccsc1-c1ncccn1` [Example 75, ((2R,5R)-2-methyl-5-(pyrazolo[1,5-α]pyrazin-4-yloxy)piperidin-1-yl) (2-(pyrimidin-2-yl)thiophen-3-yl) methanone]: the IC50 was found to be 20.6 nM.

Turning to `C[C@@H]1CC[C@@H](Oc2nccn3nccc23)CN1C(=O)c1ccccc1-n1ncnn1` [Example 76, (2-(2H-tetrazol-2-yl)phenyl)((2R,5R)-2-methyl-5-(pyrazolo[1,5-α]pyrazin-4-yloxy)piperidin-1-yl)methanone], the IC50 was 27.8 nM.

Regarding `C[C@@H]1CC[C@@H](Oc2nccn3ccnc23)CN1C(=O)c1ccccc1CS(C)(=O)=O` [Example 77, ((2R,5R)-5-(imidazo[1,2-α]pyrazin-8-yloxy)-2-methylpiperidin-1-yl)(2-((methylsulfonyl)methyl)phenyl) methanone], the half-inhibitory concentration (IC50) worked out at 27.9 nM.

On to `C[C@@H]1CC[C@@H](Oc2nccn3nccc23)CN1C(=O)c1nccnc1-c1ccccn1` [Example 78, ((2R,5R)-2-methyl-5-(pyrazolo[1,5-α]pyrazin-4-yloxy)piperidin-1-yl)(3-(pyridin-2-yl)pyrazin-2-yl)methanone], for which the 50% inhibitory concentration (IC50) was found to be 59.1 nM.

Take `COC(=O)c1ccccc1C(=O)N1C[C@H](Oc2nccn3nccc23)CC[C@H]1C` [Example 79, methyl 2-((2R,5R)-2-methyl-5-(pyrazolo[1,5-α]pyrazin-4-yloxy)piperidine-1-carbonyl)benzoate]: the IC50 turned out to be 44.2 nM.

As to `C[C@@H]1CC[C@@H](Oc2nccn3nccc23)CN1C(=O)c1nccnc1-n1cccn1` [Example 80, (3-(1H-pyrazol-1-yl)pyrazin-2-yl)((2R,5R)-2-methyl-5-(pyrazolo[1,5-α]pyrazin-4-yloxy)piperidin-1-yl)methanone], the IC50 came to 31.7 nM.

Take `CCOc1ccccc1C(=O)N1C[C@H](Oc2nccn3nccc23)CC[C@H]1C` [Example 81, (2-ethoxyphenyl)((2R,5R)-2-methyl-5-(pyrazolo[1,5-α]pyrazin-4-yloxy)piperidin-1-yl)methanone]: the half-inhibitory concentration (IC50) stood at 51.9 nM.

Regarding `CCCc1ccccc1C(=O)N1C[C@H](Oc2nccn3nccc23)CC[C@H]1C` [Example 82, ((2R,5R)-2-methyl-5-(pyrazolo [1,5-α]pyrazin-4-yloxy)piperidin-1-yl) (2-propylphenyl)methanone], the IC50 was 33.9 nM.

For `CC(C)Oc1ncccc1C(=O)N1C[C@H](Oc2nccn3nccc23)CC[C@H]1C` [Example 83, (2-isopropoxypyridin-3-yl)((2R,5R)-2-methyl-5-(pyrazolo[1,5-α]pyrazin-4-yloxy)piperidin-1-yl)methanone], the IC50 was found to be 49.1 nM.

For `CC(C)Oc1ccccc1C(=O)N1C[C@H](Oc2nccn3nccc23)CC[C@H]1C` [Example 84, (2-isopropoxyphenyl)((2R,5R)-2-methyl-5-(pyrazolo[1,5-α]pyrazin-4-yloxy)piperidin-1-yl)methanone], the IC50 amounted to 43.5 nM.

`C[C@@H]1CC[C@@H](Oc2nccn3nccc23)CN1C(=O)c1ccccc1-c1ncccn1` [Example 85, ((2R,5R)-2-methyl-5-(pyrazolo[1,5-a]pyrazin-4-yloxy)piperidin-1-yl)(2-(pyrimidin-2-yl)phenyl)methanone]: the 50% inhibitory concentration (IC50) came to 15.5 nM.

Regarding `C[C@@H]1CC[C@@H](Nc2nccn3nccc23)CN1C(=O)c1ccccc1-n1nccn1` [Example 86, (2-(2H-1,2,3-triazol-2-yl)phenyl)((2R,5R)-2-methyl-5-(pyrazolo[1,5-a]pyrazin-4-ylamino)piperidin-1-yl)methanone], the IC50 turned out to be 20.5 nM.
